Experimental data from BindingDB's records for doi:10.1073/pnas.90.21.10365 (Merck Research Laboratories, 1993).

Target: T1, Adenosine receptor A3 (Homo sapiens, UniProt P0DMS8)
T1 sequence (P0DMS8 whole entry): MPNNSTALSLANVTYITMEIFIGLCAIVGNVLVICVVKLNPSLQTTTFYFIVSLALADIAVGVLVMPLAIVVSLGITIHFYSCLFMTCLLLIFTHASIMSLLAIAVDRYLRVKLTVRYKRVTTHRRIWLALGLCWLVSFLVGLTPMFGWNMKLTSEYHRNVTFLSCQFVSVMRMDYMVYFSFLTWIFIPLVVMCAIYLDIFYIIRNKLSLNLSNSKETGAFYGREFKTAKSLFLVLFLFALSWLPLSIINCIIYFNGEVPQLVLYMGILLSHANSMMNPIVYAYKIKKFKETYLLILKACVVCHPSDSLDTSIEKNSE

Ki: 10 nM
SMILES: Nc1ccc(CNc2ncnc3c2ncn3[C@@H]2O[C@H](CO)[C@@H](O)[C@H]2O)cc1I [IABA]
